Values of other authors in US6797829B1, “Synthesis of a novel paramagnetic amino derivative (epm-5) for labelling chemical and biological macromolecules” (Conselho Nacional de Desenvolvimento Cientifico e …, priority 1999, dated 2004).
Where two headings read alike, the source gives them in different places.

- pKa of the amine group (in free state): 8
- pKa of the amine group (when bound to the N-terminal portion of a peptide chain): about 5.5
Compound: CC1(C)CC(N)(C(=O)O)CC(C)(C)N1[O] [Toac, 2,2,6,6tetramethylpiperidine-1-oxyl-4-amine-4-carboxylic acid]
